The values that follow come from publication PMC11355195 (Life, 2024).

One assay has as its target T1, COX-1 (Ovis aries, UniProt P05979).
T1 construct: The COX-1 enzyme was produced from ram seminal vesicles; purchased Cayman Chemical Company, Ann Arbor, MI, USA; host or cells: ram seminal vesicles (tissue)
T1 sequence (P05979 25-600): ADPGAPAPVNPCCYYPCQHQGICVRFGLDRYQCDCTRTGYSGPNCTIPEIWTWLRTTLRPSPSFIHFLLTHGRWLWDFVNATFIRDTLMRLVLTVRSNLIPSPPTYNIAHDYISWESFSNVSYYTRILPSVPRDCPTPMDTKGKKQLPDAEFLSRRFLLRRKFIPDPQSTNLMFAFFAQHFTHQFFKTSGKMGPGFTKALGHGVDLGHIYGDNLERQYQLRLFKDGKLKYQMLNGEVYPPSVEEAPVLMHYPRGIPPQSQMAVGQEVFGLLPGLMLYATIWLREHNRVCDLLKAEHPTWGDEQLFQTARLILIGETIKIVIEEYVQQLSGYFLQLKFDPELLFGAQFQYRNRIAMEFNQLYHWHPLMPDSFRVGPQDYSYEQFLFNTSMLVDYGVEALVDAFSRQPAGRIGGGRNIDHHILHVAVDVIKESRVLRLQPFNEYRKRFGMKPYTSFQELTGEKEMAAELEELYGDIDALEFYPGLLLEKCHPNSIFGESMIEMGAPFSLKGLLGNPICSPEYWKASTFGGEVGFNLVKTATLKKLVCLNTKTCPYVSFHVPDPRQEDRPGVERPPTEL
The experiment in a line: COX-1-catalyzed prostaglandin production inhibition. Type of assay: biochemical, ram. Conditions: mean ± standard deviation, three replicas; read-out: COX-1 inhibition IC50 (converted). How it is done:
The COX inhibitory effects of the substances were examined using a COX-1/COX-2-catalyzed prostaglandin production test, using a modified approach by Futaki et al.. The chemicals were dissolved in 4% DMSO to a final concentration of 100 µg/mL.
In this test, one unit of COX-1 or COX-2 enzyme was suspended in a 0.1 M Tris-HCl buffer (pH 7.5) containing hematin ([…]) and phenol (2 mM) as cofactors. The COX-1 enzyme was produced from ram seminal vesicles, while COX-2 was taken from sheep placenta with a purity of 70% (both from Cayman Chemical Company, Ann Arbor, MI, USA). The reaction mixture was preincubated with either the solvent vehicle (4% DMSO) or the test solution for 2 min at 37 °C. […] Arachidonic acid, tagged with radioactive carbon ([1–14C]), serves as a substrate for the COX enzymes. The mixture was then incubated for an additional 2 min at 37 °C. […] The organic solvent phase was removed, and the PGE2 level in the remaining aqueous phase was quantified using a radioimmunoassay with a liquid scintillation counter, which measures the radioactivity (disintegrations per minute, DPM) of the [1–14C]-labeled PGE2. The percentage inhibition of COX-catalyzed prostaglandin production by the test compounds was estimated by comparing the radioactivity of the samples with the solvent vehicle controls. […]

The nature of a further assay: ABTS scavenging activity. The source says:
With a few minor adjustments, the procedure published by Re et al., was used to evaluate the test samples’ capacity to scavenge radicals against the ABTS (2,2′-azinobis-3-ethylbenzothiazoline-6-sulphonate) radical cation.

In assay [1] the test system is peripheral blood mononuclear cells (PBMC). Nature of the assay: MTT cell viability, PBMC (normal cell control). Type of assay: cell-based. Conditions: PBMC, MTT test, 72 h of treatment (Figure 3), read-out: IC50 Value ± SD, PBMC. How it is done:
This approach determines cell viability based on the ability of living cells to decrease MTT to a purple, water-insoluble formazan product. Cells were planted in 96-well plates at a density of 1 × 10^4 cells per well in 100 μL of complete culture media, which provides all necessary nutrients for cell growth. […] The cells were then treated with the compounds for 24, 48, and 72 h to determine the effect on cell viability over varied time intervals. Following each incubation time, 20 μL of MTT solution (at a concentration of 5 mg/mL in PBS) were applied to each well. The plates were further incubated for 4 h at 37 °C, during which time live cells decrease the MTT to formazan, creating purple crystals. At the end of the incubation, the medium containing the MTT was carefully aspirated, leaving only the formazan crystals in the bottom of the wells. To dissolve these crystals, 100 μL of DMSO were administered to each well. […] This formula quantifies the reduction in cell viability in response to the treatments compared to the control. […] Cisplatin, a known anticancer drug, was used as a reference drug at varying concentrations from 0.01 to 50 µg/mL.

The next assay has as its system MCF-7. The experiment in a line: MTT cell viability, MCF-7. It counts as cell-based, Human. Conditions: Homo sapiens, MCF7; MTT test; 72 h of treatment (Figure 3); read-out: IC50 Value ± SD, MCF-7. Here is the method:
These cell lines were selected to represent distinct sub-types of breast cancer for extensive investigation. […] The medium was added with 10% heat-inactivated fetal calf serum (FCS) to supply vital growth hormones and nutrients necessary for cell proliferation. Additionally, 1% penicillin streptomycin was administered to avoid bacterial contamination, ensuring the sterility and integrity of the cell cultures. The cell cultures were maintained at 37 °C in a humidified environment containing 5% CO2. This controlled environment mimics physiological conditions in the human body, supporting optimal cell development and function. The humidified atmosphere prevents medium evaporation, while the 5% CO2 concentration maintains optimal pH values in the culture medium. These specialized circumstances and methods ensure that the breast cancer cell lines remain healthy and viable for experimental procedures, delivering dependable and reproducible results for research projects. The standard protocols followed for cultivating these cells are crucial for generating consistent and reliable data. Using well-characterized cell lines from a credible source like ATCC ensures the re-liability and comparability of the experimental outcomes.
This approach determines cell viability based on the ability of living cells to decrease MTT to a purple, water-insoluble formazan product. Cells were planted in 96-well plates at a density of 1 × 10^4 cells per well in 100 μL of complete culture media, which provides all necessary nutrients for cell growth. […] The cells were then treated with the compounds for 24, 48, and 72 h to determine the effect on cell viability over varied time intervals. Following each incubation time, 20 μL of MTT solution (at a concentration of 5 mg/mL in PBS) were applied to each well. The plates were further incubated for 4 h at 37 °C, during which time live cells decrease the MTT to formazan, creating purple crystals. At the end of the incubation, the medium containing the MTT was carefully aspirated, leaving only the formazan crystals in the bottom of the wells. […]

For the next assay, the system named is MCF-7 cells. Conditions: ref Seresht et al. (2019) [79], cited from earlier work.

Converted amounts (≈) assume the structure as drawn. Like-named read-outs stand apart in the source and are kept apart here.

A word on the IC50: it is the concentration at which inhibition is half-maximal.

On to `Cc1ccc(C(C)C)c(O)c1` [Thymol, 2-isopropyl-5-methylphenol], for which the IC50 is 198 µM at COX-1, 307 ± 3.48 µg/mL (≈ 2050 µM) in assay [1] and 5.16 ± 0.71 µg/mL (≈ 34.3 µM) with MCF-7. In addition, the “ABTS Scavenging Activity IC50” value in the assay “ABTS scavenging activity” was determined as 125.31 ± 6.25 µg/mL. Further, the “IC50 on MCF-7 cells” value in the assay on MCF-7 cells (48 h) was 54 µg/mL (≈ 359 µM); with MCF-7 cells (72 h), 62 µg/mL (≈ 413 µM).
